Consider 15 molecules from ChEMBL document CHEMBL5365473, “Novel Sulfonylurea-Based NLRP3 Inflammasome Inhibitor for Efficient Treatment of Nonalcoholic Steatohepatitis, Endotoxic Shock, and Colitis” (J Med Chem, 2023).

This assay addresses NACHT, LRR and PYD domains-containing protein 3 (Mus musculus, UniProt Q8R4B8). Nature of the assay: Inhibition of NLRP3 inflammasome in mouse […] cells assessed as inhibition of LPS/ATP-induced IL-1 beta secretion primed with LPS for 4.5 hs followed by incubation with compound for 30 mins and later stimulation with ATP for 30 mins by ELISA. It counts as cell-based, J774.A1.

NACHT, LRR and PYD domains-containing protein 3, sequence (Q8R4B8 whole entry, the tested form may be a part): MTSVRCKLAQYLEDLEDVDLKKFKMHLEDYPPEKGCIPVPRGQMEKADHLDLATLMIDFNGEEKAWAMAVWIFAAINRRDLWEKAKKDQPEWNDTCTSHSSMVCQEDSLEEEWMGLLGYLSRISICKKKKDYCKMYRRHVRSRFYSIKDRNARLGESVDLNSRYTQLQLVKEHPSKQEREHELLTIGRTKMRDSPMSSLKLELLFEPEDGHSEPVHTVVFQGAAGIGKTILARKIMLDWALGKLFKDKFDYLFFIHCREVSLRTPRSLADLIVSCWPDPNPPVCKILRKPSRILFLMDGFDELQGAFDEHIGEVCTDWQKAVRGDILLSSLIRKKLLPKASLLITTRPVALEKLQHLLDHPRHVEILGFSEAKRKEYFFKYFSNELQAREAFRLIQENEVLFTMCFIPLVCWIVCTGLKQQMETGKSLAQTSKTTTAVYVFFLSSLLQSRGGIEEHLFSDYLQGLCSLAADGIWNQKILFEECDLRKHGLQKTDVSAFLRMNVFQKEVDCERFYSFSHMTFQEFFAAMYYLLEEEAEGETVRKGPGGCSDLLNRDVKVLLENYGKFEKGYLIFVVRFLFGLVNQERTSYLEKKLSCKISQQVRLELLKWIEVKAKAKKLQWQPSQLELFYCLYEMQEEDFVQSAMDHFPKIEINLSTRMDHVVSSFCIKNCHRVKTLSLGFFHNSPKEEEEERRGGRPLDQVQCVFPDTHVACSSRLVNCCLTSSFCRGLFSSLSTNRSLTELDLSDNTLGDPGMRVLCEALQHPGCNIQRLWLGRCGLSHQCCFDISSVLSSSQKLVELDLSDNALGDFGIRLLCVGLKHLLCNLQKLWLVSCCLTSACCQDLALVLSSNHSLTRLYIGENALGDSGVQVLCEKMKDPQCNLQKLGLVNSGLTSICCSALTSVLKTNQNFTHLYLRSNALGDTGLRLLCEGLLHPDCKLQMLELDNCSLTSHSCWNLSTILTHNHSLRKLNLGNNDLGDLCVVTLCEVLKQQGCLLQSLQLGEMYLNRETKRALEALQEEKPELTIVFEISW

Take `O=C(Nc1c2c(cc3c1CCC3)CCC2)NS(=O)(=O)c1ccc(CN2CCCCC2)cc1`: the IC50 is 1.25 µM.

In the case of `CC(C)(O)c1coc(S(=O)(=O)NC(=O)Nc2c3c(c(-c4cccc(C#N)c4)c4c2CCC4)CCC3)c1`, the IC50 is more than 5 µM.

As for `CC(C)(C)OC(=O)N1CC=C(c2c3c(c(NC(=O)NS(=O)(=O)c4cc(C(C)(C)O)co4)c4c2CCC4)CCC3)CC1`, the IC50 was more than 5 µM.

Consider `CC(C)(O)c1coc(S(=O)(=O)NC(=O)Nc2c3c(c(-c4ccc(C=O)cc4)c4c2CCC4)CCC3)c1`, for which the IC50 is more than 5 µM.

For `CN(C)Cc1cc(S(=O)(=O)NC(=O)Nc2c3c(cc4c2CCC4)CCC3)ccn1`, the half-inhibitory concentration (IC50) was 1.68 µM.

As for `COC1CN(Cc2cccc(S(=O)(=O)NC(=O)Nc3c4c(cc5c3CCC5)CCC4)c2)C1`, the IC50 amounted to 5 µM.

Regarding `CC(C)c1cccc(C(C)C)c1NC(=O)NS(=O)(=O)c1ccc(CN(C)C)cc1`, the IC50 stood at 0.138 µM.

In the case of `CC(C)(C)OC(=O)Nc1ccc(-c2c3c(c(NC(=O)NS(=O)(=O)c4cc(C(C)(C)O)co4)c4c2CCC4)CCC3)cc1`, the IC50 is more than 5 µM.

Take `CCCN(C)Cc1ccc(S(=O)(=O)NC(=O)Nc2c3c(cc4c2CCC4)CCC3)cc1`: the IC50 is more than 10 µM.

Regarding `CN(C)c1ccc(-c2c3c(c(NC(=O)NS(=O)(=O)c4cc(C(C)(C)O)co4)c4c2CCC4)CCC3)cc1`, the concentration for half-maximal inhibition (IC50) was more than 5 µM.

Take `O=C(Nc1c2c(cc3c1CCC3)CCC2)NS(=O)(=O)c1ccc(CN2CCOCC2)cc1`: the IC50 was found to be 3.69 µM.

In the case of `CN(C)Cc1cccc(S(=O)(=O)NC(=O)Nc2c3c(cc4c2CCC4)CCC3)c1`, the IC50 was 0.168 µM.

As for `CN1CCN(Cc2ccc(S(=O)(=O)NC(=O)Nc3c4c(cc5c3CCC5)CCC4)cc2)CC1`, the half-inhibitory concentration (IC50) was more than 10 µM.

For the molecule `CCCCN(C)Cc1ccc(S(=O)(=O)NC(=O)Nc2c3c(cc4c2CCC4)CCC3)cc1`, the IC50 was more than 10 µM.

`CC(=O)c1cccc(S(=O)(=O)NC(=O)Nc2c3c(cc4c2CCC4)CCC3)c1`: the IC50 is more than 20 µM.
